Reference: ChEMBL document CHEMBL2202954, “The effect of PLC-γ2 inhibitors on the growth of human tumour cells” (2012)

Tests used:
Type in all cases: functional
A498 = experiment: Cytotoxicity against human A498 cells assessed as cellular growth at 10 uM by SRB assay
SF-268 = experiment: Cytotoxicity against human SF268 cells assessed as cellular growth at 10 uM by SRB assay
OVCAR-4 = experiment: Cytotoxicity against human OVCAR4 cells assessed as cellular growth at 10 uM by SRB assay
HCC 2998 = experiment: Cytotoxicity against human HCC2998 cells assessed as cellular growth at 10 uM by SRB assay
U-251 = experiment: Cytotoxicity against human U251 cells assessed as cellular growth at 10 uM by SRB assay
SK-OV-3 = experiment: Cytotoxicity against human SKOV3 cells assessed as cellular growth at 10 uM by SRB assay
HCT-116 = experiment: Cytotoxicity against human HCT116 cells assessed as cellular growth at 10 uM by SRB assay
A549 = experiment: Cytotoxicity against human A549 cells assessed as cellular growth at 10 uM by SRB assay
CCRF-CEM = experiment: Cytotoxicity against human CCRF-CEM cells assessed as cellular growth at 10 uM by SRB assay
SR = experiment: Cytotoxicity against human SR cells assessed as cellular growth at 10 uM by SRB assay
T47D = experiment: Cytotoxicity against human T47D cells assessed as cellular growth at 10 uM by SRB assay
SN12C = experiment: Cytotoxicity against human SN12C cells assessed as cellular growth at 10 uM by SRB assay
HOP-62 = experiment: Cytotoxicity against human HOP62 cells assessed as cellular growth at 10 uM by SRB assay
HOP-92 = experiment: Cytotoxicity against human HOP92 cells assessed as cellular growth at 10 uM by SRB assay
MDA-MB-231 = experiment: Cytotoxicity against human MDA-MB-231 cells assessed as cellular growth at 10 uM by SRB assay
OVCAR-5 = experiment: Cytotoxicity against human OVCAR5 cells assessed as cellular growth at 10 uM by SRB assay
IGROV-1 = experiment: Cytotoxicity against human IGROV1 cells assessed as cellular growth at 10 uM by SRB assay
MDA-MB-435 = experiment: Cytotoxicity against human MDA-MB-435 cells assessed as cellular growth at 10 uM by SRB assay
UO-31 = experiment: Cytotoxicity against human UO31 cells assessed as cellular growth at 10 uM by SRB assay
COLO 205 = experiment: Cytotoxicity against human COLO205 cells assessed as cellular growth at 10 uM by SRB assay

Structure (SMILES) | Activity (A498) [%] | Activity (SF-268) [%] | Activity (OVCAR-4) [%] | Activity (HCC 2998) [%] | Activity (U-251) [%] | Activity (SK-OV-3) [%] | Activity (HCT-116) [%] | Activity (A549) [%] | Activity (CCRF-CEM) [%] | Activity (SR) [%] | Activity (T47D) [%] | Activity (SN12C) [%] | Activity (HOP-62) [%] | Activity (HOP-92) [%] | Activity (MDA-MB-231) [%] | Activity (OVCAR-5) [%] | Activity (IGROV-1) [%] | Activity (MDA-MB-435) [%] | Activity (UO-31) [%] | Activity (COLO 205) [%]
COc1ccc(NC(=O)c2sc3nc4c(cc3c2N)C(=O)CCC4)cc1 | 39.38 | 109.11 | 107.69 | 94.7 | 106.61 | 115.02 | 97.11 | 97.44 | 88.17 | 113.2 | 110.7 | 116.88 | 112.48 | 78.47 | 116.49 | 99.71 | 114.88 | 97.12 | 106.6 | 122.21
COc1ccc(S(=O)(=O)n2ccc(-c3ccc4c(c3)CCC(C)(C)O4)n2)cc1 | 89.14 | 94.69 | 52.32 | 88.92 | 84.18 | 90.41 | 68.33 | 73.96 | 58.86 |  | 46.7 | 97.48 | 112.43 | 61.38 | 87.67 | 108.8 | 90.82 | 74.3 | 78.12 | 107.28
N#Cc1ccc(-n2nnc3ccccc32)cc1C#N | 72.76 | 105 | 110.46 | 103.78 | 91.31 | 98.76 | 102.06 | 87.19 | 93.15 |  | 86.31 | 101.03 | 94.62 | 103.19 | 111.41 | 110.44 | 103.62 | 85.25 | 88.55 | 104.26
N#Cc1ccc(NC(=O)c2sc3nc4c(cc3c2N)C(=O)CCC4)cc1 | 79.55 | 102.29 | 105.84 | 99.15 | 106.08 | 106.21 | 107.92 | 92.54 | 99.79 |  | 95.85 | 98.35 | 100.94 | 95.57 | 109.01 | 89.16 | 113.1 | 97.44 | 103.56 | 108.98
O=C(NCCc1ccccc1)c1[nH]c2ccccc2c1Cl | 81.46 | 92.71 | 82.6 | 101.44 | 92.92 | 91.3 | 87.15 | 96.24 | 86.13 |  | 71.67 | 97.03 | 86.43 | 72.64 | 80.08 | 104.54 | 82.65 | 96.07 | 57.64 | 99.13
COc1cc(/C=c2/sc3nc4ccccc4n3c2=O)cc(I)c1O | 69.55 | 99.48 | 96.8 | 106.16 | 101.21 | 96.7 | 98.72 | 88.66 | 83.8 |  | 82.96 | 101.23 | 101.47 | 93.81 | 107.43 | 102.12 | 110.46 | 97.54 | 70.56 | 103.31
CC1(C)CC(=O)c2cc3c(N)c(C(=O)NCc4ccccc4)sc3nc2C1 | 89.05 | 102.72 | 78.52 | 101.88 | 99.82 | 111.17 | 103.66 | 99.09 | 99.55 | 116.5 | 100.55 | 98.59 | 95.84 | 60.17 | 101.13 | 108.53 | 107.02 | 91.3 | 110.68 | 128.9
O=C(Nc1nc2ccccc2s1)c1ccc(F)cc1 | 89.82 | 114.42 | 85.42 | 69.88 | 99.72 | 108.36 | 92.81 | 98.36 | 100.74 | 98.39 | 55.31 | 108.22 | 106.04 | 78.65 | 95.53 | 100.92 | 88.87 | 100.56 | 89.11 | 117.74
O=C(NCCc1ccccc1)c1cc2cccc([N+](=O)[O-])c2[nH]1 | 117.41 | 106.93 | 75.65 | 105.66 | 97.58 | 91.43 | 101.79 | 94.33 | 86.81 | 91.6 | 69.69 | 94.11 | 90.84 | 84.88 | 77.17 | 116.02 | 101.06 | 109.58 | 62.13 | 90.85
Cc1ccc(NC(=O)c2sc3nc4c(cc3c2N)C(=O)CCC4)c(Br)c1 | 83.73 | 100.61 | 105.66 | 102.39 | 94.7 | 92.59 | 106.38 | 92.09 | 103.07 |  | 89.73 | 94.31 | 95.12 | 107.03 | 118.27 | 105.13 | 112.76 | 94.29 | 94.06 | 113.39
Cc1ccc(Cl)cc1NC(=O)c1sc2nc3c(cc2c1N)C(=O)CCC3 | 51.16 | 74.86 | 90.15 | 74.86 | 59.13 | 42.36 | 67.98 | 53.86 | 49.18 | 68.85 | 82.87 | 80.57 | 60.95 | 56.86 | 80.03 | 94.25 | 75.72 | -3.04 | 83.44 | 39.71
